{
  "source": "patent US10660903B2",
  "about": "“Orodispersible dosage unit containing an estetrol component” (ESTETRA SPRL, priority 2015, dated 2020)",
  "key": {"production of SHBG": {"tested_on": "production of SHBG", "conditions": "in vitro; cited from earlier work"}, "[1]": {"test": "Particle size distribution by laser diffraction (Malvern Mastersizer Microplus)", "format": "physicochemical", "conditions": "milled estetrol used in the tablets", "protocol": "The particles size distribution of the estetrol particles, and of other particulate materials used in the present process, may suitably be determined by means of laser diffraction. The particle size distribution of the estetrol particles within the solid dosage unit can suitably be determined using spectroscopic techniques, e.g. Raman mapping.\nParticle size distribution of estetrol monohydrate is performed using a MALVERN MASTERS IZER MICROPLUS laser particle size analyzer.\n• Weigh 1 g of estetrol monohydrate and 1 g of sorbitan trioleate into a flask. • Add 1 litre of n-hexane and mix for at least 1 hour at room temperature • Filter through a 0.45 μm filter.\n• Put 100 mg of sample in a 25 mL beaker. • Add some drops of dispersion medium. • Mix carefully with a glass rod to suspend well the powder. • Add 10 mL of dispersion medium. • Perform the analysis with the sample dispersion unit's speed at 3000-3500 rpm.\nParticle size measurements are performed three times using the same dispersion. The final result is obtained by averaging the results of the three determinations."}, "[2]": {"conditions": "humans; cited from earlier work"}, "[3]": {"test": "Randomized, open-label, two-period, cross-over pharmacokinetic study, sublingual versus oral estetrol", "format": "in vivo, human", "conditions": "10 mg estetrol; sublingual vs oral; healthy female volunteers", "protocol": "A randomized, open-label, two-period, cross-over, pharmacokinetic study is conducted to compare sublingual bioavailability of 10 mg estetrol administered in one 100 mg tablet with oral availability of estetrol contained in a 83 mg tablet containing 10 mg estetrol. These tablets are administered sublingually and orally to healthy female volunteers under fasting conditions.\nTen healthy female subjects are selected on the basis of the following criteria: age of 45-65 years (inclusive), nonsmokers or past smokers (at least 6 months before dosing), body-mass index (BMI)=18.5 to 30 kg/m^2 (inclusive at the time of the screening).\nAt the start of the first and the second period of the study, between 07:00 am and 07:28 am, 5 subjects receive a single dose of the sublingual formulation of estetrol by administering one estetrol tablet (tablet weight 100 mg; 10 mg estetrol) and 5 subjects receive a single oral dose of the oral estetrol formulation by administering one estetrol tablet (tablet weight 83 mg; 10 mg estetrol), ingested together with 200 ml water. […]\nThe estetrol concentration in the collected blood samples is determined by means of HPLC/MS/MS. The concentrations of glucuronided estetrol (D-ring) in the urine samples is also determined with the help of HPLC/MS/MS."}, "estrogen receptors": {"tested_on": "estrogen receptors", "conditions": "in vitro; cited from earlier work"}, "[4]": {"tested_on": "vagina, uterus, body weight, bone mass, bone strength, hot flushes, ovulation", "conditions": "rat models; dose-dependent; cited from earlier work"}, "[5]": {"tested_on": "human breast cancer cells", "conditions": "in the presence of 17β-estradiol; cited from earlier work"}, "[6]": {"biological_target": "T1, sex hormone binding globulin (SHBG) (Homo sapiens, UniProt P04278)", "T1 sequence (P04278 30-402)": "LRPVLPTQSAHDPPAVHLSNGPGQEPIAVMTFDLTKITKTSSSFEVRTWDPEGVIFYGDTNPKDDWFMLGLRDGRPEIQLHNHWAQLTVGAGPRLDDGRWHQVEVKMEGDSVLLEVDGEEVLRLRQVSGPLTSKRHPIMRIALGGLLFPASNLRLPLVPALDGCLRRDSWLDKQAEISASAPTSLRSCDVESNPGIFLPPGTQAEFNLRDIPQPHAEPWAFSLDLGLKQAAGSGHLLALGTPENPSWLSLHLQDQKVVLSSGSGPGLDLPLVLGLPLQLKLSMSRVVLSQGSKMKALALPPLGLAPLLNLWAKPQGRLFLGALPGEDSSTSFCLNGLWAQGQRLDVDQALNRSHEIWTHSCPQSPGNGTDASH", "conditions": "cited from earlier work"}, "DMBA mammary tumour": {"tested_on": "DMBA mammary tumour", "conditions": "extent and dose level similar to tamoxifen and to ovariectomy; cited from earlier work"}},
  "data": [
    {"smiles": "C[C@]12CC[C@@H]3c4ccc(O)cc4CC[C@H]3[C@@H]1[C@@H](O)[C@@H](O)[C@@H]2O", "note": "[estetrol, 1,3,5 (10)-estratrien-3,15α,16α,17β-tetrol]", "values": [
      {"measurement": "stimulation of the production of SHBG", "setting": "production of SHBG", "result": "does not stimulate"},
      {"measurement": "D (v;0.5) (volume median diameter)", "setting": "[1]", "result": "^1 D (v;0.5) = 15 μm"},
      {"measurement": "oral bioavailability", "setting": "[2]", "result": "high and dose-proportional"},
      {"measurement": "terminal elimination half-life", "setting": "[2]", "result": "about 28 hours"},
      {"measurement": "impact on a liver function parameter, sublingual versus oral estetrol", "setting": "[3]", "result": "less impact"},
      {"measurement": "binding to the estrogen receptors, selectivity", "setting": "estrogen receptors", "result": "binds highly selective to the estrogen receptors with preference for the ERa form of the receptor"},
      {"measurement": "estrogenic effects on vagina, uterus, body weight, bone mass, bone strength, hot flushes and ovulation", "setting": "[4]", "result": "exhibited estrogenic effects"},
      {"measurement": "anti-estrogenic effect", "setting": "[5]", "result": "anti-estrogenic effect"},
      {"measurement": "binding to SHBG", "setting": "[6]", "result": "does not bind"},
      {"measurement": "tumour development", "setting": "DMBA mammary tumour", "result": "prevented tumour development"}
    ]}
  ]
}
